Results: ChEMBL document CHEMBL1201862, “PubChem BioAssay data set” (2004)
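Briefly, cells in 96-well plates were exposed to five compound concentrations for 48 h, and endpoints were estimated by linear interpolation. The concentration for 50% growth inhibition is given as GI50.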 Active and inactive are the calls of the source. Rule as the data show it: active = GI50 up to about 1.1 µM and inactive = higher.

Experiments:
Experiment in all cases: inhibition of tumour cell growth, NCI panel, 48 h
786-0 = system: 786-0
A498 = system: A498
A549 = system: A549
ACHN = system: ACHN
BT-549 = system: BT-549
CAKI-1 = system: CAKI-1
CCRF-CEM = system: CCRF-CEM
COLO 205 = system: COLO 205
DU-145 = system: DU-145
EKVX = system: EKVX
HCC 2998 = system: HCC 2998
HCT-116 = system: HCT-116
HCT-15 = system: HCT-15
HL-60 = system: HL-60
HOP-62 = system: HOP-62
HOP-92 = system: HOP-92
HT-29 = system: HT-29
Hs-578T = system: Hs-578T
IGROV-1 = system: IGROV-1
K562 = system: K562
KM12 = system: KM12
LOX IMVI = system: LOX IMVI
M14 = system: M14
MCF7 = system: MCF7
MDA-MB-231 = system: MDA-MB-231
MDA-MB-435 = system: MDA-MB-435
MDA-N = system: MDA-N
MOLT-4 = system: MOLT-4
Malme-3M = system: Malme-3M
NCI-H226 = system: NCI-H226
NCI-H23 = system: NCI-H23
NCI-H460 = system: NCI-H460
NCI-H522 = system: NCI-H522
NCI/ADR-RES = system: NCI/ADR-RES
OVCAR-3 = system: OVCAR-3
OVCAR-4 = system: OVCAR-4
OVCAR-5 = system: OVCAR-5
OVCAR-8 = system: OVCAR-8
PC-3 = system: PC-3
RPMI-8226 = system: RPMI-8226
RXF 393 = system: RXF 393
SF-268 = system: SF-268
SF-295 = system: SF-295
SF-539 = system: SF-539
SK-MEL-28 = system: SK-MEL-28
SK-MEL-2 = system: SK-MEL-2
SK-MEL-5 = system: SK-MEL-5
SK-OV-3 = system: SK-OV-3
SN12C = system: SN12C
SNB-19 = system: SNB-19
SNB-75 = system: SNB-75
SR = system: SR
SW-620 = system: SW-620
T47D = system: T47D
TK-10 = system: TK-10
U-251 = system: U-251
UACC-257 = system: UACC-257
UACC-62 = system: UACC-62
UO-31 = system: UO-31

Measured: GI50

CC(C)Cc1cc2c(cc1O)CCC1C2CC[C@@]2(C)C1CC[C@@H]2O (stereo partly specified)
7.21 µM: HCT-15
inactive: 786-0 8.13 µM | A498 18.3 µM | A549 6.84 µM | ACHN 6.95 µM | BT-549 2.96 µM | CAKI-1 16 µM | CCRF-CEM 7.91 µM | COLO 205 15.2 µM | DU-145 9.2 µM | EKVX 8.69 µM | HCC 2998 13.1 µM | HCT-116 6.05 µM | HL-60 1.94 µM | HOP-62 11.6 µM | HOP-92 10.2 µM | HT-29 8.02 µM | Hs-578T 6.19 µM | IGROV-1 15.1 µM | K562 3.83 µM | KM12 6.55 µM | LOX IMVI 6.22 µM | M14 7.87 µM | MCF7 8.43 µM | MDA-MB-231 7.59 µM | MDA-MB-435 11.6 µM | MDA-N 7.05 µM | MOLT-4 3.5 µM | Malme-3M 17.7 µM | NCI-H226 4.79 µM | NCI-H23 8.39 µM | NCI-H460 10.5 µM | NCI-H522 6.25 µM | NCI/ADR-RES 6.14 µM | OVCAR-3 5.57 µM | OVCAR-4 8.97 µM | OVCAR-5 16.1 µM | OVCAR-8 6.35 µM | PC-3 6.35 µM | RPMI-8226 3.74 µM | RXF 393 4.35 µM | SF-268 10.8 µM | SF-295 4.09 µM | SF-539 19.5 µM | SK-MEL-28 10.6 µM | SK-MEL-2 6.71 µM | SK-MEL-5 7.45 µM | SK-OV-3 8.17 µM | SN12C 7.74 µM | SNB-19 7.46 µM | SNB-75 5.68 µM | SR 3.85 µM | SW-620 8.65 µM | T47D 5.04 µM | TK-10 9.48 µM | U-251 10.7 µM | UACC-257 14.3 µM | UACC-62 7.71 µM | UO-31 4.05 µM

Cc1nn(C(=O)c2ccccc2O)c2c1C(c1ccc([N+](=O)[O-])cc1)SC(=N)N2 (stereo unspecified)
active: Hs-578T 0.676 µM | SF-539 0.984 µM | SNB-75 0.769 µM
5.14 µM: HCT-15
inactive: 786-0 > 5.24 µM | A498 2.78 µM | A549 1.47 µM | ACHN 1.17 µM | BT-549 7.8 µM | CAKI-1 2.19 µM | CCRF-CEM 3.32 µM | COLO 205 > 8.61 µM | DU-145 3.64 µM | EKVX > 10 µM | HCC 2998 > 10 µM | HCT-116 2.48 µM | HL-60 4.27 µM | HOP-62 4.92 µM | HOP-92 1.55 µM | HT-29 > 6.67 µM | IGROV-1 1.88 µM | K562 1.17 µM | KM12 5.36 µM | LOX IMVI 3.4 µM | M14 7.19 µM | MCF7 3.72 µM | MDA-MB-231 > 5.94 µM | MDA-MB-435 1.45 µM | MDA-N 2.89 µM | MOLT-4 4.94 µM | Malme-3M 4.42 µM | NCI-H226 > 4.12 µM | NCI-H23 2.79 µM | NCI-H460 3.79 µM | NCI-H522 5.6 µM | NCI/ADR-RES 4.51 µM | OVCAR-3 4.05 µM | OVCAR-4 3.56 µM | OVCAR-5 > 7.76 µM | OVCAR-8 4 µM | PC-3 > 9.53 µM | RPMI-8226 > 7.03 µM | RXF 393 2.54 µM | SF-268 6.68 µM | SF-295 3.13 µM | SK-MEL-28 > 10 µM | SK-MEL-2 > 5.46 µM | SK-MEL-5 > 6.43 µM | SK-OV-3 6.38 µM | SN12C 4.78 µM | SNB-19 6.05 µM | SR 4.83 µM | SW-620 6.17 µM | T47D 5.71 µM | TK-10 > 4.5 µM | U-251 2.9 µM | UACC-257 3.21 µM | UACC-62 2.03 µM | UO-31 4.49 µM

COc1c(O)ccc2c1CN1CCc3cc4c(cc3C1C2)OCO4 (stereo unspecified)
active: SR 0.441 µM
inactive: 786-0 23.9 µM | A498 20.8 µM | A549 32.5 µM | ACHN 16.3 µM | BT-549 28.2 µM | CAKI-1 38.3 µM | CCRF-CEM 30.8 µM | COLO 205 36.1 µM | DU-145 21.8 µM | EKVX 47.8 µM | HCC 2998 31.6 µM | HCT-116 24 µM | HL-60 20 µM | HOP-62 36.4 µM | HOP-92 51.8 µM | HT-29 32.7 µM | Hs-578T 27.4 µM | IGROV-1 28.6 µM | K562 20 µM | KM12 22.1 µM | LOX IMVI 22.8 µM | M14 34.8 µM | MCF7 21.6 µM | MDA-MB-231 29.3 µM | MDA-MB-435 21.8 µM | MDA-N 26.4 µM | MOLT-4 2.43 µM | Malme-3M 33.9 µM | NCI-H226 44.5 µM | NCI-H23 36.2 µM | NCI-H460 18.4 µM | NCI-H522 7.43 µM | NCI/ADR-RES 20.9 µM | OVCAR-3 26.4 µM | OVCAR-4 23.1 µM | OVCAR-5 > 65.5 µM | OVCAR-8 33.9 µM | PC-3 23.4 µM | RPMI-8226 32.4 µM | RXF 393 12.6 µM | SF-268 37 µM | SF-295 29.7 µM | SF-539 40 µM | SK-MEL-28 45.1 µM | SK-MEL-2 30.6 µM | SK-MEL-5 35 µM | SK-OV-3 23.1 µM | SN12C 27.7 µM | SNB-19 31.3 µM | SNB-75 14.5 µM | SW-620 29.9 µM | T47D 20.9 µM | TK-10 28.9 µM | U-251 29.6 µM | UACC-257 31 µM | UACC-62 27.5 µM | UO-31 29.6 µM
21.6 µM: HCT-15

CCCSc1ccc2[nH]c(N3C(=O)/C(=C/c4cc(OC)c(OC)c(OC)c4)N=C3c3ccccc3)cc2c1
active: A498 0.871 µM | A549 0.553 µM | Hs-578T 0.67 µM | SNB-19 0.681 µM
12.2 µM: HCT-15
inactive: 786-0 3.24 µM | ACHN 23 µM | BT-549 10.8 µM | CAKI-1 11.9 µM | CCRF-CEM 7.94 µM | COLO 205 8.43 µM | DU-145 10.1 µM | EKVX 5.74 µM | HCC 2998 13.2 µM | HCT-116 16.5 µM | HL-60 5.66 µM | HOP-62 1.39 µM | HOP-92 13.9 µM | HT-29 7.82 µM | IGROV-1 9.38 µM | K562 8.43 µM | KM12 1.65 µM | LOX IMVI 12.2 µM | M14 10.4 µM | MCF7 12.6 µM | MDA-MB-231 > 37.5 µM | MDA-MB-435 4.03 µM | MDA-N 4.88 µM | MOLT-4 10.9 µM | Malme-3M 13.9 µM | NCI-H226 > 37.5 µM | NCI-H23 10.9 µM | NCI-H460 12.5 µM | NCI-H522 8.97 µM | NCI/ADR-RES 11.6 µM | OVCAR-3 9.12 µM | OVCAR-4 14.5 µM | OVCAR-5 17.7 µM | OVCAR-8 12.6 µM | PC-3 16.1 µM | RPMI-8226 9.18 µM | RXF 393 7.73 µM | SF-268 11 µM | SF-295 1.25 µM | SF-539 1.72 µM | SK-MEL-28 12.9 µM | SK-MEL-2 18.4 µM | SK-MEL-5 7.53 µM | SK-OV-3 1.6 µM | SN12C 16.4 µM | SNB-75 10.8 µM | SR 1.66 µM | SW-620 10.9 µM | T47D 11 µM | TK-10 17 µM | U-251 17.8 µM | UACC-257 13.8 µM | UACC-62 8.61 µM | UO-31 15.1 µM
